Key:
[1] = test system: human colon cancer cells (HT-29); test: MTT cytotoxicity assay, HT-29; assay type: cell-based; conditions: Homo sapiens; HT-29, MTT, 48 h
From the text: (§1) In the study, five cancer cell lines (human colon cancer cells (HT-29), gastric cancer cells (BGC-823), cervical cancer cells (Hela), human breast cancer cells (MCF-7), and human lung cancer cells A549)), and two normal cell lines (human gastric epithelial cells (GES-1) and human ovarian epithelial cells (IOSE144)) were used for the evaluation of biological activity. IOSE144 cells were donated by Professor Piao Huri of Yanbian University, all other cells were purchased from the American Type Culture Collection (ATCC, Manassas, VA, USA). Cells were cultured in Dulbecco’s Modified Eagle’s Medium (DMEM), supplemented with 10% heat-inactivated fetal bovine serum (FBS), 1% 100 μg/mL penicillin and 100 μg/mL streptomycin in a humidified atmosphere containing 5% CO2 at 37 °C. Cell viability was measured using the MTT assay. Cells were seeded in 96 well microtiter plates in a volume of 100 μL medium. All compounds tested were dissolved and further diluted in DMSO. After overnight incubation, cells were treated with different test concentrations or carrier solvents alone in a final volume of 100 μL with five replicates each. […] Cells were treated with compound (80, 40, 20, 10, 5 μM) for 48 h. Then, 10 μL of MTT (5 mg/mL) was added to each well and the cells were incubated at 37 °C in the dark for 4 h. Supernatants were removed and formazan crystals were dissolved in DMSO (100 μL/well). The solution was agitated for 10 min, and the absorbance was measured at 490 nm using microplate reader (imark, BIO-RAD, Hercules, CA, USA) to calculate the 50% inhibitory concentration (IC50). Ginsenoside-Rg3, panaxadiol sapogenin (PD), AD-2 (25-OH-PPD) and AD-1 (25-OCH3-PPD) were used as standard reference compounds.

[2] = test system: gastric cancer cells (BGC-823); test: MTT cytotoxicity assay, BGC-823; assay type: cell-based, human; conditions: Homo sapiens; BGC-823, MTT, 48 h
From the text: as §1

[3] = test system: cervical cancer cells (Hela); test: MTT cytotoxicity assay, Hela; assay type: cell-based, human; conditions: Homo sapiens, 48 h
From the text: as §1

[4] = test system: human breast cancer cells (MCF-7); test: MTT cytotoxicity assay, MCF-7; assay type: cell-based; conditions: Homo sapiens, MCF7; MCF-7, MTT, 48 h
From the text: as §1

[5] = test system: human lung cancer cells A549; test: MTT cytotoxicity assay, A549; assay type: cell-based; conditions: Homo sapiens, 48 h
From the text: as §1

[6] = MTT cytotoxicity assay, GES-1 normal cells; assay type: cell-based, human; conditions: human
From the text: as §1

[7] = MTT cytotoxicity assay, IOSE144 normal cells; assay type: cell-based, human; conditions: human
From the text: as §1

[8] = test system: five cancer cell lines (HT-29, BGC-823, Hela, MCF-7, A549); test: Cytotoxic activity on five cancer cell lines (overall statement); assay type: cell-based, human; conditions: MTT
From the text: as §1

[9] = test system: MCF-7 cells; test: Cell cycle distribution assay, MCF-7; assay type: cell-based, human; conditions: MCF-7, 30 μM, 24 h; controls 0.73% (3b) and 1.69% (AD-1)
Description: MCF-7 cells treated with 30 μM of compound 3b were incubated for 24 h in CO2 incubator. AD-1 was tested as a positive control, and the experimental concentration of AD-1 was 30 μM. Cells were trypsinized, harvested, washed with PBS, and fixed with 75% ethanol overnight at −20 °C. Next, fixed cells were washed with PBS and stained for 4 h in the dark with a PI solution consisting of 50 μg/mL PI, 50 μg/mL RNase, 0.1% sodium citrate and 0.1% Triton X-100 (pH 8.0). Cell cycle distribution was determined using FACScan (Becton Dickinson, Franklin Lakes, NJ, USA).

[10] = test system: IOSE144 cells; test: Cell cycle distribution assay, IOSE144; assay type: cell-based, human; conditions: IOSE144, 24 h; control 1.17%
[11] = parameters: method as in earlier work; conditions: stronger than ginsenoside-Rg3; cited from earlier work

Structure (SMILES)	IC50 [1] [µM]	IC50 [2] [µM]	IC50 [3] [µM]	IC50 [4] [µM]	IC50 [5] [µM]	IC50 at 48 h [6] [µM]	IC50 at 48 h [7] [µM]	anticancer activity (in words) [8]	melting point [°C]	subG1 phase after treatment [9] [%]	subG1 phase after treatment [10] [%]	IC50 at 48 h ([6]; GES-1 gastric epithelial cells (normal cell line), GES-1 normal cells, MTT, 48 h, read-out: IC50) [µM]	IC50 at 48 h ([7]; IOSE144 ovarian epithelial cells (normal cell line), IOSE144 normal cells, MTT, 48 h, read-out: IC50) [µM]	antitumor activity compared with ginsenoside-Rg3 [11]
CC(=O)Oc1ccccc1C(=O)OC1CCC2(C)C(CCC3(C)C2CC(O)C2C(C(C)(O)CCCC(C)(C)O)CCC23C)C1(C)C (stereo not drawn) [Compound 8b]	13.25 ± 0.05	10.2 ± 0.29	10 ± 0.53	14.7 ± 0.24	6.12 ± 0.1	> 100	> 100	strong anticancer activity	254 to 256	–	–	–	–	–
CC(=O)Oc1ccccc1C(=O)OC1CCC2(C)C(CCC3(C)C2CC(OC(=O)c2ccccc2O)C2C(C4(C)CCCC(C)(C)O4)CCC23C)C1(C)C [Compound 1b, 20(R)-Pananxadiol-3β-yl-2′-acetylbenzoate-12β-yl-2′-hydroxybenzoate]	12.2 ± 0.28	9.65 ± 0.61	11.3 ± 0.14	7.65 ± 0.29	13.26 ± 0.11	> 100	> 100	strong anticancer activity	198 to 200	–	–	–	–	–
CC(=O)Oc1ccccc1C(=O)OC1CC2C3(C)CCC(O)C(C)(C)C3CCC2(C)C2(C)CCC(C3(C)CCCC(C)(C)O3)C12 [Compound 5b, 20(R)-Pananxadiol-3β-hydroxy-12β-yl-2′-acetylbenzoate]	20.1 ± 0.74	26.24 ± 0.02	18.65 ± 0.13	24.36 ± 0.15	14.1 ± 0.52	> 100	> 100	–	226 to 228	–	–	–	–	–
COC(C)(C)CCCC(C)(O)C1CCC2(C)C1C(OC(=O)c1ccccc1O)CC1C3(C)CCC(OC(=O)c4ccccc4O)C(C)(C)C3CCC12C [Compound 2a, 20(R)-25-Methoxydammarane-20-hydroxy-3β,12β-di-yl-2′-hydroxybenzoate]	32.58 ± 0.23	40.9 ± 0.45	16.5 ± 0.23	25.7 ± 0.43	26.45 ± 0.14	> 100	> 100	–	200 to 202	–	–	–	–	–
CC(C)(CCCC(C)(O)C1CCC2(C)C1C(O)CC1C3(C)CCC(O)C(C)(C)C3CCC12C)OC(=O)c1ccccc1O [Compound 8a, 20(R)-Dammarane-3β,12β,20-triol-25-yl-2′-hydroxybenzoate]	> 100	> 100	> 100	50.7 ± 1.34	47.1 ± 0.59	> 100	> 100	–	223 to 225	–	–	–	–	–
CC(C)(CCCC(C)(O)C1CCC2(C)C1C(O)CC1C3(C)CCC(OC(=O)c4ccccc4O)C(C)(C)C3CCC12C)OC(=O)c1ccccc1O [Compound 6a, 20(R)-Dammarane-12β, 20-diol-3β, 25-di-yl-2′-hydroxybenzoate]	> 100	> 100	20.4 ± 0.36	> 100	19.4 ± 0.59	> 100	> 100	–	219 to 221	–	–	–	–	–
CC1(C)CCC[C@](C)(C2CC[C@]3(C)C2[C@H](OC(=O)c2ccccc2O)CC2[C@@]4(C)CC[C@H](O)C(C)(C)C4CC[C@]23C)O1 (stereo partly drawn) [Compound 12a, 20(R)-Pananxadiol-3β-hydroxy-12β-yl-2′-hydroxybenzoate]	> 100	> 100	> 100	60.1 ± 2.45	50.2 ± 0.94	> 100	> 100	–	248 to 250	–	–	–	–	–
CC(C)(O)CCCC(C)(O)C1CCC2(C)C1C(OC(=O)c1ccccc1O)CC1C3(C)CCC(OC(=O)c4ccccc4O)C(C)(C)C3CCC12C [Compound 7a, 20(R)-Dammarane-20, 25-diol-3β, 12β-di-yl-2′-hydroxybenzoate]	22.7 ± 0.46	70.6 ± 2.12	35.2 ± 1.24	29.1 ± 0.69	8.52 ± 0.15	> 100	> 100	strong anticancer activity	197 to 199	–	–	–	–	–
CC(=O)Oc1ccccc1C(=O)OC1CCC2(C)C(CCC3(C)C2CC(O)C2C(C4(C)CCCC(C)(C)O4)CCC23C)C1(C)C (stereo not drawn) [Compound 3b]	10.7 ± 0.12	11.2 ± 0.16	20.9 ± 0.54	2.56 ± 0.09	14.37 ± 0.04	> 100	> 100	strong anticancer activity	243 to 245	56.95	7.58	–	–	–
CC(C)(CCCC(C)(O)C1CCC2(C)C1C(OC(=O)c1ccccc1O)CC1C3(C)CCC(OC(=O)c4ccccc4O)C(C)(C)C3CCC12C)OC(=O)c1ccccc1O [Compound 1a, 20(R)-Dammarane-20-hydroxy-3β,12β,25-tri-yl-2′-hydroxybenzoate]	9.23 ± 0.08	11.8 ± 0.21	3.23 ± 0.34	20.31 ± 0.11	15.69 ± 0.1	> 100	> 100	strong anticancer activity	192 to 194	–	–	–	–	–
CC(=O)OC1CCC2(C)C(CCC3(C)C2CC(OC(=O)c2ccccc2O)C2C(C4(C)CCCC(C)(C)O4)CCC23C)C1(C)C [Compound 4b, 20(R)-Pananxadiol-3β-o-acetyl-12β-yl-2′-hydroxybenzoate]	36.12 ± 0.28	50.26 ± 0.39	48.75 ± 0.37	39.4 ± 0.68	25.4 ± 0.77	> 100	> 100	–	238 to 240	–	–	–	–	–
CC(C)(O)CCC[C@@](C)(O)C1CC[C@]2(C)C1[C@H](O)CC1[C@@]3(C)CC[C@H](O)C(C)(C)C3CC[C@]12C (stereo partly drawn) [AD-2, 25-hydroxyprotopanaxadiol, reference compound]	18.7 ± 0.28	44.2 ± 1.06	48.6 ± 1.24	49.6 ± 1.35	34.3 ± 0.87	–	–	–	–	–	–	> 100	> 100	5–15 fold
COC(C)(C)CCCC(C)(O)C1CCC2(C)C1C(OC(=O)c1ccccc1O)CC1C3(C)CCC(O)C(C)(C)C3CCC12C [Compound 3a, 20(R)-25-Methoxydammarane-3β,20-diol-12β-yl-2′-hydroxybenzoate]	10.5 ± 0.25	15.1 ± 0.24	9.78 ± 0.03	5.34 ± 0.04	13 ± 0.25	> 100	> 100	strong anticancer activity	235 to 237	–	–	–	–	–
CC(C)(O)CCCC(C)(O)C1CCC2(C)C1C(OC(=O)c1ccccc1O)CC1C3(C)CCC(O)C(C)(C)C3CCC12C [Compound 5a, 20(R)-Dammarane-3β,20,25-triol-12β-yl-2′-hydroxybenzoate]	18.4 ± 0.47	60.5 ± 1.11	21.6 ± 1.08	18.5 ± 0.23	22.5 ± 0.46	> 100	> 100	–	258 to 260	–	–	–	–	–
CC(=O)Oc1ccccc1C(=O)OC1CC2C3(C)CCC(OC(=O)c4ccccc4OC(C)=O)C(C)(C)C3CCC2(C)C2(C)CCC(C3(C)CCCC(C)(C)O3)C12 [Compound 2b, 20(R)-Pananxadiol-3β, 12β-di-yl-2′-acetylbenzoate]	5.27 ± 0.14	8.12 ± 0.25	16.2 ± 0.34	10.25 ± 0.05	15.47 ± 0.13	> 100	> 100	strong anticancer activity	238 to 240	–	–	–	–	–
